# Measurements: the supplement of paper PMC11061612
# Assays:
# [1] = tested on: OCI-AML5 (Acute Myeloid Leukemia); experiment: Bliss excess, mean over the matrix (fraction); higher = more synergy
# Summary of the method: (§1)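 Cell lines grown in DMEM/F12 or RPMI with 10% FBS were plated in 1536-well plates and held 24 hours at 37°C, 5% CO2 before 72 hours of exposure to two-drug dose matrices, with DMSO typically at 0.2%. CellTiter-Glo 2.0 luminescence gave viability, which was converted to inhibition. Vehicle wells were set to 0 and blank wells to 1. Combination Emax is the second-highest inhibition in the matrix, and Bliss excess is the observed combination effect minus the expected EA + EB − EA·EB, where EA and EB are the single-agent effects.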
# [2] = tested on: EB-3 (Burkitt's Lymphoma); experiment: as above
# Summary of the method: as §1
# [3] = tested on: PC-14 (Lung Adenocarcinoma); experiment: combination Emax (second highest fraction inhibited in the dose matrix, 72 h); higher = more inhibition; extreme values may be limits of the assay
# Summary of the method: as §1
# [4] = tested on: NCI-H1155 (Non-Small Cell Lung Carcinoma); experiment: as above
# Summary of the method: as §1
# [5] = tested on: SJRH30 (Rhabdomyosarcoma); experiment: as above
# Summary of the method: as §1
# [6] = tested on: AsPC-1 (Pancreatic Carcinoma); experiment: as above
# Summary of the method: as §1
# [7] = tested on: SW684 (Other Solid Carcinomas); experiment: as above
# Summary of the method: as §1
# [8] = tested on: LAMA-84 (Chronic Myelogenous Leukemia); experiment: as above
# Summary of the method: as §1
# [9] = tested on: RL95-2 (Endometrial Carcinoma); experiment: as above
# Summary of the method: as §1
# [10] = tested on: OV-90 (Ovarian Carcinoma); experiment: as above
# Summary of the method: as §1
# [11] = tested on: Becker (Low Grade Glioma); experiment: as above
# Summary of the method: as §1
# [12] = tested on: RPMI-8866 (Chronic Myelogenous Leukemia); experiment: as above
# Summary of the method: as §1
# [13] = tested on: KYSE-70 (Esophageal Squamous Cell Carcinoma); experiment: as above
# Summary of the method: as §1
# [14] = tested on: RMG-I (Ovarian Carcinoma); experiment: as above
# Summary of the method: as §1
# [15] = tested on: Caov-3 (Ovarian Carcinoma); experiment: as above
# Summary of the method: as §1
# [16] = tested on: PANC-02-03 (Pancreatic Carcinoma); experiment: as above
# Summary of the method: as §1
# [17] = tested on: OVTOKO (Ovarian Carcinoma); experiment: as above
# Summary of the method: as §1
# [18] = tested on: CML-T1 (Chronic Myelogenous Leukemia); experiment: as above
# Summary of the method: as §1
# HuO-3N1 (Osteosarcoma) = experiment: as above
# Summary of the method: as §1
# RT4 (Bladder Carcinoma) = experiment: as above
# Summary of the method: as §1
# 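For Bliss excess, mean over the matrix in this document: after 72 h of two-drug dosing.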
SMILES,Bliss excess [1],Bliss excess [2],combination Emax [3],combination Emax [4],combination Emax [5],combination Emax [6],combination Emax [7],combination Emax [8],combination Emax [9],combination Emax [10],combination Emax [11],combination Emax [12],combination Emax [13],combination Emax [14],combination Emax [15],combination Emax [16],combination Emax [17],combination Emax [18],combination Emax (HuO-3N1 (Osteosarcoma)),combination Emax (RT4 (Bladder Carcinoma))
"COc1cccc(OCCCN)c1-c1cc(Nc2cnc(C#N)cn2)n[nH]1 [Prexasertib] + Cc1cc2ncnn2cc1Nc1ncc2c(n1)n(C1CCOCC1)c(=O)n2C [AZD7648] (first compound max 1 µM, 7x7, partner max 10 µM)",0.0718,-0.0106,0.861,0.92,0.935,0.425,0.498,0.99,0.893,0.548,0.707,1,0.615,0.678,0.797,0.609,0.526,0.98,0.49,0.404
"CCc1c2c(nc3ccc(O)cc13)-c1cc3c(c(=O)n1C2)COC(=O)[C@]3(O)CC [SN-38] + O=C(c1cc(Cc2n[nH]c(=O)c3ccccc23)ccc1F)N1CCN(C(=O)C2CC2)CC1 [Olaparib] (first compound max 0.3 µM, 7x7, partner max 10 µM)",–,-0.0075,0.696,0.968,0.444,0.156,0.556,0.948,–,0.553,0.818,0.994,0.304,0.421,0.984,0.728,–,1,0.688,0.832
"CC1(C)CCC(CN2CCN(c3ccc(C(=O)NS(=O)(=O)c4ccc(NCC5CCOCC5)c([N+](=O)[O-])c4)c(Oc4cnc5[nH]ccc5c4)c3)CC2)=C(c2ccc(Cl)cc2)C1 [Venetoclax] + COc1cc(Nc2ncc3c(n2)-c2ccc(Cl)cc2C(c2c(F)cccc2OC)=NC3)ccc1C(=O)O [Alisertib] (first compound max 1 µM, 7x7, partner max 10 µM)",0.17,-0.0103,0.741,0.809,0.423,0.136,0.253,0.934,0.588,0.248,0.547,0.89,0.392,0.371,0.838,0.292,0.484,0.965,0.372,0.791
"Cc1cc2ncnn2cc1Nc1ncc2c(n1)n(C1CCOCC1)c(=O)n2C [AZD7648] + C[C@@H]1COCCN1C2=NC(=NC(=C2)C3(CC3)[S@](=N)(=O)C)C4=C5C=CNC5=NC=C4 [AZD6738] (first compound max 10 µM, 7x7, partner max 10 µM)",-0.0209,-0.0278,0.805,0.746,0.801,0.369,0.383,0.947,0.592,0.489,0.607,0.969,0.414,0.53,0.773,0.555,0.344,0.936,0.331,0.488
"Cc1cc2ncnn2cc1Nc1ncc2c(n1)n(C1CCOCC1)c(=O)n2C [AZD7648] + CN(C)CCCOc1ccc(-c2ccc3ncc4c(c3c2)n(C2CCOCC2)c(=O)n4C)cn1 [AZD0156] (first compound max 10 µM, 7x7, partner max 1 µM)",0.0276,-0.0867,0.28,0.319,0.165,0.274,0.268,0.202,0.246,0.216,0.184,0.638,0.211,0.431,0.366,0.236,0.229,0.388,0.369,0.42
"Cc1c2c(nn1C)CSCc1cc(n(C)n1)CSc1cc(c3ccccc3c1)OCCCc1c(C(=O)O)n(C)c3c-2c(Cl)ccc13 [AZD5991] + CC1(C)CCC(CN2CCN(c3ccc(C(=O)NS(=O)(=O)c4ccc(NCC5CCOCC5)c([N+](=O)[O-])c4)c(Oc4cnc5[nH]ccc5c4)c3)CC2)=C(c2ccc(Cl)cc2)C1 [Venetoclax] (first compound max 1 µM, 7x7, partner max 1 µM)",0.0667,-0.0151,0.245,0.379,0.588,0.12,0.174,0.183,0.943,0.246,0.124,0.438,0.103,0.421,0.453,0.138,0.198,0.779,0.733,0.959
"COc1cccc2c1C(=O)c1c(O)c3c(c(O)c1C2=O)C[C@@](O)(C(=O)CO)C[C@@H]3O[C@H]1C[C@H](N)[C@H](O)[C@H](C)O1 [Doxorubicin] + Cc1cc2ncnn2cc1Nc1ncc2c(n1)n(C1CCOCC1)c(=O)n2C [AZD7648] (first compound max 1 µM, 7x7, partner max 10 µM)",0.174,-0.0391,0.748,0.916,0.925,0.267,0.556,0.822,0.376,0.569,0.555,0.996,0.502,0.599,0.826,0.506,0.216,1,0.81,0.867
"CC1(C)CCC(CN2CCN(c3ccc(C(=O)NS(=O)(=O)c4ccc(NCC5CCOCC5)c([N+](=O)[O-])c4)c(Oc4cnc5[nH]ccc5c4)c3)CC2)=C(c2ccc(Cl)cc2)C1 [Venetoclax] + CCN(CCO)CCCOc1ccc2c(Nc3cc(CC(=O)Nc4cccc(F)c4)[nH]n3)ncnc2c1 [AZD2811] (first compound max 1 µM, 7x7, partner max 1 µM)",-0.0195,0.0036,0.312,0.887,0.287,0.154,0.275,0.594,0.593,0.285,0.221,0.601,0.224,0.302,0.892,0.217,0.263,0.991,0.256,0.702
"Cc1c2c(nn1C)CSCc1cc(n(C)n1)CSc1cc(c3ccccc3c1)OCCCc1c(C(=O)O)n(C)c3c-2c(Cl)ccc13 [AZD5991] + CCN(CCO)CCCOc1ccc2c(Nc3cc(CC(=O)Nc4cccc(F)c4)[nH]n3)ncnc2c1 [AZD2811] (first compound max 1 µM, 7x7, partner max 1 µM)",-0.0165,-0.0197,0.371,0.897,0.663,0.243,0.231,0.636,1,0.262,0.147,0.764,0.315,0.303,0.896,0.269,0.241,0.389,0.875,0.913
"CC1(C)CCC(CN2CCN(c3ccc(C(=O)NS(=O)(=O)c4ccc(NCC5CCOCC5)c([N+](=O)[O-])c4)c(Oc4cnc5[nH]ccc5c4)c3)CC2)=C(c2ccc(Cl)cc2)C1 [Venetoclax] + C[C@@H]1COCCN1C2=NC(=NC(=C2)C3(CC3)[S@](=N)(=O)C)C4=C5C=CNC5=NC=C4 [AZD6738] (first compound max 1 µM, 7x7, partner max 10 µM)",0.0391,-0.0047,0.845,0.829,0.864,0.264,0.48,0.975,0.691,0.533,0.656,0.958,0.433,0.545,0.794,0.508,0.566,0.993,0.393,0.612
"CN(CCO)CC[C@H](CSc1ccccc1)Nc1ccc(S(=O)(=O)NC(=O)c2ccc(N3CCC([C@@H](O)c4ccccc4-c4ccc(Cl)cc4)CC3)cc2)cc1S(=O)(=O)C(F)(F)F [AZD4320] + C[C@@H](Nc1cc(F)cc(F)c1)c1cc(C(=O)N(C)C)cc2c(=O)cc(N3CCOCC3)oc12 [AZD8186] (first compound max 1 µM, 7x7, partner max 3 µM)",0.0823,0.0368,0.297,0.97,0.457,0.739,0.702,0.728,0.253,0.795,0.431,0.864,0.211,0.868,0.911,0.278,–,1,0.441,0.583
"Cc1c2c(nn1C)CSCc1cc(n(C)n1)CSc1cc(c3ccccc3c1)OCCCc1c(C(=O)O)n(C)c3c-2c(Cl)ccc13 [AZD5991] + Cn1cnc2c(F)c(Nc3ccc(Br)cc3Cl)c(C(=O)NOCCO)cc21 [Selumetinib] (first compound max 1 µM, 7x7, partner max 3 µM)",0.0422,-0.0424,0.343,0.363,0.512,0.506,0.319,0.912,1,–,0.274,0.502,0.188,0.41,0.501,0.524,–,0.344,0.832,0.352
